Measured values: patent EP3708565A1, “PYRIMIDINYLOXYPHENYLAMIDINES AND THE USE THEREOF AS FUNGICIDES” (Bayer AG, priority 2020, dated 2020)

Experiments:
Sphaerotheca fuliginea = assay: in vivo preventive test on Sphaerotheca fuliginea (powdery mildew on cucurbits); conditions: 500 ppm of active ingredient, young gherkin plants sprayed, inoculated after 24 hours, evaluated 8 days after the inoculation; for pest or weed control at 500 ppm: Podosphaera fuliginea, 192 h, read-out: efficacy
Description: Example: in vivo preventive test on Sphaerotheca fuliginea (powdery mildew on cucurbits)
(§1) The active ingredients were made soluble and homogenized in a mixture of Dimethyl sulfoxide/Acetone/ /Tween® 80 and then diluted in water to the desired concentration.
The young plants of gherkin were treated by spraying the active ingredient prepared as described above. Control plants were treated only with an aqueous solution of Acetone/Dimethyl sulfoxide/ […].
After 24 hours, the plants were contaminated by spraying the leaves with an aqueous suspension of Sphaerotheca fuliginea spores. The contaminated gherkin plants were incubated for 8 days at 20°C and at 70-80% relative humidity.
The test was evaluated 8 days after the inoculation. 0% means an efficacy which corresponds to that of the control plants while an efficacy of 100% means that no disease was observed.

Puccinia recondita = assay: in vivo preventive test on Puccinia recondita (brown rust on wheat); conditions: for pest or weed control at 500 ppm: Puccinia recondita, 264 h, 500 ppm of active ingredient, young wheat plants sprayed, inoculated after 24 hours, evaluated 11 days after the inoculation, read-out: efficacy; for efficacy: 500 ppm
Description: Example: in vivo preventive test on Puccinia recondita (brown rust on wheat)
as §1
The young plants of wheat were treated by spraying the active ingredient prepared as described above. Control plants were treated only with an aqueous solution of Acetone/Dimethyl sulfoxide/ Tween® 80.
After 24 hours, the plants were contaminated by spraying the leaves with an aqueous suspension of Puccinia recondita spores. The contaminated wheat plants were incubated for 24 hours at 20°C and at 100% relative humidity and then for 10 days at 20°C and at 70-80% relative humidity.
The test was evaluated 11 days after the inoculation. 0% means an efficacy which corresponds to that of the control plants while an efficacy of 100% means that no disease was observed.

Phakospora pachyrhizi = assay: in vivo preventive test on Phakospora pachyrhizi (soybean rust); conditions: for pest or weed control at 500 ppm: Glycine max, 288 h, 500 ppm of active ingredient, young soybean plants sprayed, inoculated after 24 hours, evaluated 12 days after the inoculation, read-out: efficacy; for efficacy: 500 ppm
Description: Example: in vivo preventive test on Phakospora pachyrhizi (soybean rust)
as §1
The young plants of soybean were treated by spraying the active ingredient prepared as described above. Control plants were treated only with an aqueous solution of Acetone/Dimethyl sulfoxide/ […].
After 24 hours, the plants were contaminated by spraying the leaves with an aqueous suspension of Phakosporapachyrhizi spores. The contaminated soybean plants were incubated for 24 hours at 24°C and at 100% relative humidity and then for 11 days at 24°C and at 70-80% relative humidity.
The test was evaluated 12 days after the inoculation. 0% means an efficacy which corresponds to that of the control plants while an efficacy of 100% means that no disease was observed.

[1] = LogP measurement by HPLC on reversed phase columns (EEC directive 79/831 Annex V.A8); format: physicochemical
Description: If more than one LogP value is available within the same method, all the values are given and separated by "+".
Lambda-max-values were determined using UV-spectra from 200 nm to 400 nm and the peak values of the chromatographic signals.

[2] = reversed phase HPLC column, method [a]: LC-UV, acidic range, 0.1% formic acid in water and acetonitrile as eluent
[3] = reversed phase HPLC column, method [b]: LC-UV, neutral range, 0.001 molar ammonium acetate solution in water and acetonitrile as eluent
[4] = method [a]: LC-UV, acidic range, 0.1% formic acid in water and acetonitrile as eluent
[5] = method [b]: LC-UV, neutral range, 0.001 molar ammonium acetate solution in water and acetonitrile as eluent

| chromatographic logP [1, 2] | chromatographic logP [1, 3] | chromatographic logP [1, 4] | chromatographic logP [1, 5] | SMILES | pest or weed control at 500 ppm (Sphaerotheca fuliginea) [%] | pest or weed control at 500 ppm (Puccinia recondita) [%] | pest or weed control at 500 ppm (Phakospora pachyrhizi) [%] | efficacy (Sphaerotheca fuliginea) | efficacy (Puccinia recondita) | efficacy (Phakospora pachyrhizi) |
| --- | --- | --- | --- | --- | --- | --- | --- | --- | --- | --- |
| 1.75 | – | – | – | CCN(C)C=Nc1cc(C)c(Oc2ccnc(SC3CCCC3)n2)cc1C [I.012, N'-[4-(2-cyclopentylsulfanylpyrimidin-4-yl)oxy-2,5-dimethylphenyl]-N-ethyl-N-methylmethan-imidamide] | ≥ 70 | ≥ 70 | ≥ 70 | – | – | – |
| 1.6 | 4.78 | – | – | CCN(C)C=Nc1cc(Br)c(Oc2ccnc(SC(C)C)n2)cc1C [I.014, N'-[5-bromo-2-methyl-4-(2-propan-2-ylsulfanylpyrimidin-4-yl)oxyphenyl]-N-ethyl-N-methyl-methanimidamide] | ≥ 70 | ≥ 70 | ≥ 70 | – | – | – |
| 2.11 | 5.99 | – | – | CCN(C)C=Nc1cc(Br)c(Oc2cc(SC(C)(C)C)nc(C)n2)cc1C [I.018, N'-[5-bromo-4-(6-tert-butylsulfanyl-2-methylpyrimidin-4-yl)oxy-2-methylphenyl]-N-ethyl-N-methylmethanimidamide] | ≥ 70 | ≥ 70 | ≥ 70 | – | – | – |
| 1.69 | – | – | – | CCCSc1nc(C)cc(Oc2cc(C)c(N=CN(C)CC)cc2C)n1 [I.020, N'-[2,5-dimethyl-4-(6-methyl-2-propylsulfanylpyrimidin-4-yl)oxyphenyl]-N-ethyl-N-methyl-methanimidamide] | ≥ 70 | ≥ 70 | ≥ 70 | – | – | – |
| 1.84 | – | – | – | CCN(C)C=Nc1cc(C)c(Oc2cc(C)nc(SCC(C)C)n2)cc1C [I.021, N'-[2,5-dimethyl-4-[6-methyl-2-(2-methylpropylsulfanyl)pyrimidin-4-yl]oxyphenyl]-N-ethyl-N-methylmethanimidamide] | ≥ 70 | ≥ 70 | ≥ 70 | – | – | – |
| 1.99 | – | – | – | CCN(C)C=Nc1cc(C)c(Oc2cc(SC(C)(C)C)nc(C)n2)cc1C [I.023, N'-[4-(6-tert-butylsulfanyl-2-methylpyrimidin-4-yl)oxy-2,5-dimethylphenyl]-N-ethyl-N-methyl-methanimidamide] | ≥ 70 | ≥ 70 | ≥ 70 | – | – | – |
| 2.02 | 5.98 | – | – | CCC(C)Sc1cc(Oc2cc(C)c(N=CN(C)CC)cc2C)nc(C)n1 (stereo not drawn) [I.024, N'-[4-(6-butan-2-ylsulfanyl-2-methylpyrimidin-4-yl)oxy-2,5-dimethylphenyl]-N-ethyl-N-methyl-methanimidamide] | ≥ 70 | ≥ 70 | ≥ 70 | – | – | – |
| 1.45 | 4.54 | – | – | CCN(C)C=Nc1cc(C)c(Oc2ccnc(SC(C)C)n2)cc1C [I.028, N'-[2,5-dimethyl-4-(2-propan-2-ylsulfanylpyrimidin-4-yl)oxyphenyl]-N-ethyl-N-methylmethan-imidamide] | ≥ 70 | ≥ 70 | ≥ 70 | – | – | – |
| – | – | 1.46 | 4.61 | CCCSc1nccc(Oc2cc(C)c(N=CN(C)CC)cc2C)n1 [I.029, N'-[2,5-dimethyl-4-(2-propylsulfanylpyrimidin-4-yl)oxyphenyl]-N-ethyl-N-methylmethanimid-amide] | – | – | – | at least 70% | at least 70% | at least 70% |
| 1.24 | 3.82 | – | – | CCN(C)C=Nc1cc(C)c(Oc2ccnc(C(F)(F)F)n2)cc1C [I.030, N'-[2,5-dimethyl-4-[2-(trifluoromethyl)pyrimidin-4-yl]oxyphenyl]-N-ethyl-N-methylmethan-imidamide] | ≥ 70 | ≥ 70 | ≥ 70 | – | – | – |
| 1.52 | 4.37 | – | – | CCN(C)C=Nc1cc(C)c(Oc2ccnc(SCC(F)(F)F)n2)cc1C [I.031, N'-[2,5-dimethyl-4-[2-(2,2,2-trifluoroethylsulfanyl)pyrimidin-4-yl]oxyphenyl]-N-ethyl-N-methylmethanimidamide] | ≥ 70 | ≥ 70 | ≥ 70 | – | – | – |

Further lines, the compound ahead of its results:

| SMILES | chromatographic logP [1, 2] | chromatographic logP [1, 3] | chromatographic logP [1, 4] | chromatographic logP [1, 5] | pest or weed control at 500 ppm (Sphaerotheca fuliginea) [%] | pest or weed control at 500 ppm (Puccinia recondita) [%] | pest or weed control at 500 ppm (Phakospora pachyrhizi) [%] | efficacy (Sphaerotheca fuliginea) | efficacy (Puccinia recondita) | efficacy (Phakospora pachyrhizi) |
| --- | --- | --- | --- | --- | --- | --- | --- | --- | --- | --- |
| CCN(C)C=Nc1cc(C)c(Oc2ccnc(SCCC(F)(F)F)n2)cc1C [I.013, N'-[2,5-dimethyl-4-[2-(3,3,3-trifluoropropylsulfanyl)pyrimidin-4-yl]oxyphenyl]-N-ethyl-N-methylmethanimidamide] | 1.58 | – | – | – | ≥ 70 | ≥ 70 | ≥ 70 | – | – | – |
| CCCSc1nccc(Oc2cc(C)c(N=CN(C)CC)cc2Br)n1 [I.015, N'-[5-bromo-2-methyl-4-(2-propylsulfanylpyrimidin-4-yl)oxyphenyl]-N-ethyl-N-methylmethan-imidamide] | 1.66 | 4.86 | – | – | ≥ 70 | ≥ 70 | ≥ 70 | – | – | – |
| CCSc1nccc(Oc2cc(C)c(N=CN(C)CC)cc2Br)n1 [I.016, N'-[5-bromo-4-(2-ethylsulfanylpyrimidin-4-yl)oxy-2-methylphenyl]-N-ethyl-N-methylmethan-imidamide] | 1.46 | 4.44 | – | – | ≥ 70 | ≥ 70 | ≥ 70 | – | – | – |
| CCN(C)C=Nc1cc(Br)c(Oc2ccnc(C(F)(F)F)n2)cc1C [I.017, N'-[5-bromo-2-methyl-4-[2-(trifluoromethyl)pyrimidin-4-yl]oxyphenyl]-N-ethyl-N-methyl-methanimidamide] | 1.32 | 4.08 | – | – | ≥ 70 | ≥ 70 | ≥ 70 | – | – | – |
| CCSc1nc(C)cc(Oc2cc(C)c(N=CN(C)CC)cc2C)n1 [I.019, N-ethyl-N'-[4-(2-ethylsulfanyl-6-methylpyrimidin-4-yl)oxy-2,5-dimethylphenyl]-N-methyl-methanimidamide] | 1.52 | – | – | – | ≥ 70 | ≥ 70 | ≥ 70 | – | – | – |
| CCN(C)C=Nc1cc(C)c(Oc2cc(C)nc(SC(C)C)n2)cc1C [I.022, N'-[2,5-dimethyl-4-(6-methyl-2-propan-2-ylsulfanylpyrimidin-4-yl)oxyphenyl]-N-ethyl-N-methylmethanimidamide] | 1.69 | – | – | – | ≥ 70 | ≥ 70 | ≥ 70 | – | – | – |
| CCN(C)C=Nc1cc(C(F)F)c(Oc2ccnc(SCC(C)C)n2)cc1C [I.025, N'-[5-(difluoromethyl)-2-methyl-4-[2-(2-methylpropylsulfanyl)pyrimidin-4-yl]oxyphenyl]-N-ethyl-N-methylmethanimidamide] | 1.69 | – | – | – | ≥ 70 | ≥ 70 | ≥ 70 | – | – | – |
| CCSc1nccc(Oc2cc(C)c(N=CN(C)CC)cc2C)n1 [I.027, N-ethyl-N'-[4-(2-ethylsulfanylpyrimidin-4-yl)oxy-2,5-dimethylphenyl]-N-methylmethanimid-amide] | – | – | 1.27 | 4.12 | – | – | – | at least 70% | at least 70% | at least 70% |
